Measurements published in US5001235A, “Antibiotic beta-lactams containing a pyridone carboxylic acid or acid derivative” (The Upjohn Company, priority 1989, dated 1991).
Values after ≈ are worked out from the molar mass of the structure shown. Counter-ions that a name gives are not always drawn. Like-named read-outs stand apart in the source and are kept apart here.

Legend:
Experiment in all cases: MIC by agar dilution (Mueller Hinton Agar)
Type in all cases: cell-based
Citrobacter freundli = details: Culture Number 3507, MHA, 35° C., 20 hours, read-out: Minimum Inhibitory Concentration
Method: (§1) The compounds of this invention and their respective pharmacologically acceptable salts have antibiotic activity against a variety of gram-negative bacteria including Escherichia coli, Klebsiella pneumoniae, and Pseudomonas aeruginosa. The compounds are useful for treating bacterial infections in animals, including and most preferably humans. Compounds of the invention are tested for in vitro antimicrobial activity using standard testing procedures such as the determination of minimum inhibitory concentration (MIC) by agar dilution as described in "Methods for Dilution Antimicrobial Susceptibility Tests for Bacteria That Grow Aerobically" (M7-A) Published December 1985 by the National Committee for Clinical Laboratory Standards, 771 East Lancaster Avenue, Villanova, Pa. 19084. Briefly, MIC values are determined in unsupplemented Mueller Hinton Agar (MHA). The compounds tested are diluted serially into molten MHA at 47° C. The agar is poured into petri dishes and allowed to harden. The various bacteria used for testing are grown overnight on MHA at 35° C. and transferred to Tryptiease Soy Broth (TSB) until a turbidity of 0.5 McFarland standard is obtained. The bacteria are diluted one to 20 in TSB and inoculated on the plates (1 μl using a Steers replicator). […] The MIC test results of two typical compounds of this invention, Compound 14 which is (3S)-3-[2-(2-Amino-4-thiazolyl)-Z-(2)-carboxyisopropyloxyimino)acetamido]- 1-[(3-carboxy-4-pyridon-6-yl)-carbonylamino-1-(2-imidazolidone-3-yl)sulfonylaminocarbonyl]-2-azetidinone trisodium salt and Compound 17 which is (3S)-3-[2-(2-Amino-4-thiazolyl)-Z-(2)-(carboxyisopropyloxyamino)acetamido]-1-[(3-hydroxyaminocarbonyl-4-pyridon-6-yl)carbonylamino-1-(2-imidazolidone-3-yl)sulfonylaminocarbonyl]-2-azetidinone, are given in Table I.

Streptococcus faecalis = details: Enterococcus faecalis; Culture Number 694; MHA, 35° C., 20 hours; read-out: Minimum Inhibitory Concentration
Method: as §1

Staphylococcus aureus = details: MHA, 35° C., 20 hours; for MIC: Staphylococcus aureus, Culture Number 9218, read-out: Minimum Inhibitory Concentration
Method: as §1

Klebsiella oxytoca = details: 20 h, 35° C., read-out: Minimum Inhibitory Concentration
Method: as §1

Enterobacter cloacae = details: 20 h, 35° C., read-out: Minimum Inhibitory Concentration
Method: as §1

Escherichia coli = details: 20 h, 35° C., read-out: Minimum Inhibitory Concentration
Method: as §1

Serratia marcescens = details: Culture Number 6888, MHA, 35° C., 20 hours, read-out: Minimum Inhibitory Concentration
Method: as §1

Proteus vulgaris = details: Culture Number 9679, MHA, 35° C., 20 hours, read-out: Minimum Inhibitory Concentration
Method: as §1

Streptococcus pneumoniae = details: Culture Number 41, MHA, 35° C., 20 hours, read-out: Minimum Inhibitory Concentration
Method: as §1

Klebsiella pneumoniae = details: Culture Number 58, MHA, 35° C., 20 hours, read-out: Minimum Inhibitory Concentration
Method: as §1

Pseudomonas aeruginosa = test system: Pseudomonas aeruginosa
Method: as §1

Streptococcus pyogenes = details: Culture Number 152, MHA, 35° C., 20 hours, read-out: Minimum Inhibitory Concentration
Method: as §1

[1] = 20 h, Culture Number 231, MHA, 35° C., 20 hours, read-out: Minimum Inhibitory Concentration
[2] = 20 h, Culture Number 9191, MHA, 35° C., 20 hours, read-out: Minimum Inhibitory Concentration

| MIC (Citrobacter freundli) [µg/mL] | MIC (Streptococcus faecalis) [µg/mL] | MIC (Staphylococcus aureus) [µg/mL] | MIC (Klebsiella oxytoca; Culture Number 9383, MHA) [µg/mL] | MIC (Klebsiella oxytoca; Culture Number 9384, MHA) [µg/mL] | MIC (Enterobacter cloacae; Culture Number 9381, MHA) [µg/mL] | MIC (Enterobacter cloacae; Culture Number 9382, MHA) [µg/mL] | MIC (Escherichia coli; Culture Number 9379, MHA) [µg/mL] | MIC (Escherichia coli; Culture Number 9380, MHA) [µg/mL] | MIC (Escherichia coli; Culture Number 9451, MHA) [µg/mL] | MIC (Serratia marcescens) [µg/mL] | MIC (Proteus vulgaris) [µg/mL] | MIC (Streptococcus pneumoniae) [µg/mL] | MIC (Klebsiella pneumoniae) [µg/mL] | MIC (Pseudomonas aeruginosa; [1]) [µg/mL] | MIC (Pseudomonas aeruginosa; [2]) [µg/mL] | MIC (Streptococcus pyogenes) [µg/mL] | MIC (Pseudomonas aeruginosa; pseudomonas aeruginosa Culture No. 231, given in text for Compound 18, read-out: M/C) [µg/mL] | SMILES | Minimum Inhibitory Concentration (Staphylococcus aureus; Culture Number 3665) [µg/mL] | Minimum Inhibitory Concentration (Staphylococcus aureus; Culture Number 6685) [µg/mL] |
| --- | --- | --- | --- | --- | --- | --- | --- | --- | --- | --- | --- | --- | --- | --- | --- | --- | --- | --- | --- | --- |
| 0.25 | > 128 | > 128 | 4 | 0.25 | 64 | 0.5 | 0.25 | 0.125 | 0.125 | 0.5 | 0.06 | 64 | 0.5 | 0.5 | 1 | 4 | – | CC(C)(O/N=C(\C(=O)N[C@H]1CN(C(=O)NS(=O)(=O)N2CCN(NC(=O)c3cc(=O)c(C(=O)O)c[nH]3)C2=O)C1=O)c1csc(N)n1)C(=O)O [Compound 14, (3S)-3-[2-(2-Amino-4-thiazolyl)-Z-(2)-carboxyisopropyloxyimino)acetamido]-1-[(3-carboxy-4-pyridon-6-yl)-carbonylamino-1-(2-imidazolidone-3-yl)sulfonylaminocarbonyl]-2-azetidinone trisodium salt] | > 128 | > 128 |
| 0.25 (≈ 0.344 µM) | > 128 | > 128 | 4 (≈ 5.5 µM) | 0.5 (≈ 0.687 µM) | 64 (≈ 88 µM) | 2 (≈ 2.75 µM) | 0.5 (≈ 0.687 µM) | 0.5 (≈ 0.687 µM) | 0.25 (≈ 0.344 µM) | 2 (≈ 2.75 µM) | 0.125 (≈ 0.172 µM) | 64 (≈ 88 µM) | 0.5 (≈ 0.687 µM) | 4 (≈ 5.5 µM) | 4 (≈ 5.5 µM) | 4 (≈ 5.5 µM) | – | CC(C)(O/N=C(\C(=O)N[C@H]1CN(C(=O)NS(=O)(=O)N2CCN(NC(=O)c3cc(=O)c(C(=O)NO)c[nH]3)C2=O)C1=O)c1csc(N)n1)C(=O)O [Compound 17, (3S)-3-[2-(2-Amino-4-thiazolyl)-Z-(2)-(carboxyisopropyloxyamino)acetamido]-1-[(3-hydroxyaminocarbonyl-4-pyridon-6-yl)carbonylamino-1-(2-imidazolidone-3-yl)sulfonylaminocarbonyl]-2-azetidinone] | > 128 | > 128 |
| – | – | – | – | – | – | – | – | – | – | – | – | – | – | – | – | – | 8 (≈ 11.2 µM) | CC(C)(O/N=C(\C(=O)N[C@H]1CN(C(=O)NS(=O)(=O)N2CCN(NC(=O)c3cc(=O)c(C(N)=O)c[nH]3)C2=O)C1=O)c1csc(N)n1)C(=O)O [Compound 18] | – | – |
